Laboratory results as given in article PMC7743076 (bioRxiv, 2021).
Structures can show the parent of a compound that is named as a salt. Where two headings read alike, the source gives them in different places.

Experiments:
[1] = system: SARS-2-PV bearing spike from ancestral strain Wuhan-1, entry into 293T-ACE2-TMPRSS2 cells; assay type: cell-based, SARS-CoV-2; conditions: for IC50: read-out: IC50, PV entry efficiency
[2] = cited from earlier work; for pKa: ref published literature and PubChem
[3] = system: SARS-CoV-2 (Wuhan-1) infection in Vero E6 cells; experiment: Authentic SARS-CoV-2; assay type: cell-based; conditions: preliminary dose ranging
[4] = system: authentic SARS-CoV-2 (Wuhan-1) in Vero E6-TMPRSS2 cells; assay type: cell-based
[5] = 120 mg/kg IP, mice; cited from earlier work
[6] = system: SARS-CoV-2 (isolate USA-WA1/2020 or Wuhan-1); design: species or system Syrian hamsters (Mesocricetus auratus); conditions: hamster, in vivo
[7] = drug with two pKa values printed

SMILES: NCCCNCCSP(=O)(O)O [Amifostine]
- Inhibition of SARS-2-PV entry (in words) [1]: did not inhibit virus entry

SMILES: O=C(O)[C@@H](S)[C@@H](S)C(=O)O [Succimer, Dimercaptosuccinic acid]
- pKa [2, 7]: 10.8
- pKa ([2]; thiol pKa): 8.9

SMILES: NCCCNCCS [WR-1065]
- Virus-induced cytopathic effects (in words) [3]: very effective at decreasing virus-induced cytopathic effects
- IC50 [1]: ~1000 µM

SMILES: N[C@@H](CSCC(=O)O)C(=O)O [Carbocysteine]
- Inhibition of SARS-2-PV entry (in words) [1]: did not inhibit virus entry
- Virus-induced cytopathic effects (in words) [4]: not effective

SMILES: Cl.NCCS [cysteamine hydrochloride]
- Peak plasma concentration [5]: 0.6 mM
- Time of peak plasma concentration after administration [5]: ≤ 5 min

SMILES: O=S(=O)(O)CCS [Mesna, 2-mercaptoethane sulfonate, sodium salt]
- pKa ([2]; thiol pKa): > 9

SMILES: NCCS [Cysteamine]
- Virus-induced cytopathic effects (in words) [3]: very effective at decreasing virus-induced cytopathic effects
- IC50 [1]: ~1000 µM
- Alveolar hemorrhage scores [6]: significantly lower than in the control group
- Histopathology scores for mixed cell lung inflammation [6]: significantly lower than in the control group
- Lung weights (normalized to terminal body weights) [6]: significantly lower than in the control group
- Lymphocytes in BAL [6]: decreases
- Neutrophils in BAL [6]: decreases
- Total cell counts in BAL [6]: lower than in control treated animals
- Total protein in BAL [6]: lower
- Viral N2 gene transcripts in lung tissue [6]: not significantly lower than in controls
- Virus-induced cytopathic effects (in words) [4]: significantly decreased virus-induced cytopathic effects
- pKa ([2]; thiol pKa): 8.2

SMILES: CC(C)(S)C(=O)N[C@@H](CS)C(=O)O [Bucillamine]
- pKa [2, 7]: 10.2
- pKa ([2]; thiol pKa): 8.4

SMILES: CO[C@H]1O[C@H](CS)[C@H](O)[C@H](O)[C@H]1O [TDG, methyl 6-thio-6-deoxy-α-D-galactopyranoside]
- reported pKa ([2]; TDG, thiol pKa, reported, reference not given): 9.6
